Test results reported in patent publication US20230339970A1, “CASEIN KINASE 1 DELTA MODULATORS” (priority 2020, published 2023).

Tests used:
[1] = molecular target: T1, human recombinant GST cleaved CSNK1D (Homo sapiens, UniProt P48730); assay: Purified Enzyme Assay (ADP-Glo CSNK1D Kinase Assay); assay type: biochemical; conditions: 2 nM CSNK1D; peptide substrate 150 μM; ATP 20 μM; 45 minutes at room temperature
T1 construct: GST (cleaved yes); purchased University of Dundee clone DU 19064
Summary of the method: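 GST-cleaved human recombinant CSNK1D phosphorylates peptide PLSRTL-pS-VASLPGL with ATP; compounds added in dose-response, 45 min at room temperature. ADP formed measured by ADP-Glo luminescence and converted to percent activity.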

human CSNK1D = molecular target: T2, human CSNK1D (Homo sapiens, UniProt P48730); assay: Whole Cell nBRET CSNK1D Binding Assay; conditions: living CHO cells stably expressing human CSNK1D tagged with nanoluciferase; NanoBret tracer 130 nM; 2 hours at 37 C
T2 construct: expressed in transfected cells
T2 sequence (P48730 whole entry): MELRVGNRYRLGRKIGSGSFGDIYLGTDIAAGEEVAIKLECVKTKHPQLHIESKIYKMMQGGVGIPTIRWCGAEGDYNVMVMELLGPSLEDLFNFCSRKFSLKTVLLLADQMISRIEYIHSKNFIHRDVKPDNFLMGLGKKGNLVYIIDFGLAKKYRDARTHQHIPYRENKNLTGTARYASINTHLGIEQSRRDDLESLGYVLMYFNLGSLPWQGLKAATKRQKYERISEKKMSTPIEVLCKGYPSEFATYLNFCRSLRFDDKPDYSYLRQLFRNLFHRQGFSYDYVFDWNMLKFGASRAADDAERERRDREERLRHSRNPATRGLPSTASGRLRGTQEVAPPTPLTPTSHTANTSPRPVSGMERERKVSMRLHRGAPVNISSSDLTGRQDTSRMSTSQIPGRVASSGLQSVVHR

T1 sequence (P48730 whole entry): as above

## Fc1ccc(-c2nn3c(c2-c2ccnc4[nH]ccc24)COCC3)cc1 [Example 69, 2-(4-Fluorophenyl)-3-(1H-pyrrolo[2,3-b]pyridin-4-yl)-6,7-dihydro-4H-pyrazolo[5,1-c][1,4]oxazine]
[1]
  IC50: 7 nM
Human CSNK1D
  IC50: 43 nM

## Fc1ccc(-c2nn3c(c2-c2ccnc4[nH]ncc24)COCC3)cc1 [Example 70, 2-(4-Fluorophenyl)-3-(1H-pyrazolo[3,4-b]pyridin-4-yl)-6,7-dihydro-4H-pyrazolo[5,1-c][1,4]oxazine]
[1]
  IC50: 2 nM
Human CSNK1D
  IC50: 37 nM

## Cc1cc(-c2c(-c3ccc(F)cc3)nn3c2COCC3)c2cn[nH]c2n1 [Example 71, 2-(4-Fluorophenyl)-3-(6-methyl-1H-pyrazolo[3,4-b]pyridin-4-yl)-6,7-dihydro-4H-pyrazolo[5,1-c][1,4]oxazine]
[1]
  IC50: 2 nM
Human CSNK1D
  IC50: 21 nM

## Fc1cc(-c2nn3c(c2-c2ccnc4[nH]ncc24)COCC3)ccc1Cl [Example 72, 2-(4-Chloro-3-fluoro-phenyl)-3-(1H-pyrazolo[3,4-b]pyridin-4-yl)-6,7-dihydro-4H-pyrazolo[5,1-c][1,4]oxazine]
[1]
  IC50: 54 nM
Human CSNK1D
  IC50: 482 nM

## Cc1cc(-c2c(-c3ccc(Cl)c(F)c3)nn3c2COCC3)c2cn[nH]c2n1 [Example 73, 2-(4-Chloro-3-fluoro-phenyl)-3-(6-methyl-1H-pyrazolo[3,4-b]pyridin-4-yl)-6,7-dihydro-4H-pyrazolo[5,1-c][1,4]oxazine]
[1]
  IC50: 120 nM
Human CSNK1D
  IC50: 569 nM

## Fc1ccc(-c2nn3c(c2-c2ccncc2)COCC3)nc1 [Example 74, 2-(5-Fluoro-2-pyridyl)-3-(4-pyridyl)-6,7-dihydro-4H-pyrazolo[5,1-c][1,4]oxazine]
[1]
  IC50: 205 nM
Human CSNK1D
  IC50: 2410 nM

## Fc1ccc(-c2nn3c(c2-c2ccnc4[nH]c(C(F)F)cc24)COCC3)nc1 [Example 75, 3-(2-(Difluoromethyl)-1H-pyrrolo[2,3-b]pyridin-4-yl)-2-(5-fluoropyridin-2-yl)-6,7-dihydro-4H-pyrazolo[5,1-c][1,4]oxazine]
[1]
  IC50: 15 nM
Human CSNK1D
  IC50: > 10000 nM

## Fc1cncc(-c2nn3c(c2-c2ccnc4[nH]ncc24)COCC3)c1 [Example 76, 2-(5-Fluoro-3-pyridyl)-3-(1H-pyrazolo[3,4-b]pyridin-4-yl)-6,7-dihydro-4H-pyrazolo[5,1-c][1,4]oxazine]
[1]
  IC50: 168 nM
Human CSNK1D
  IC50: 2930 nM

## Cc1cc(-c2c(-c3cncc(F)c3)nn3c2COCC3)c2cn[nH]c2n1 [Example 77, 2-(5-Fluoro-3-pyridyl)-3-(6-methyl-1H-pyrazolo[3,4-b]pyridin-4-yl)-6,7-dihydro-4H-pyrazolo[5,1-c][1,4]oxazine]
[1]
  IC50: 116 nM
Human CSNK1D
  IC50: 2320 nM

## Fc1ccc(-c2nn3c(c2-c2ccnc4[nH]ncc24)COCC3)nc1 [Example 78, 2-(5-Fluoro-2-pyridyl)-3-(1H-pyrazolo[3,4-b]pyridin-4-yl)-6,7-dihydro-4H-pyrazolo[5,1-c][1,4]oxazine]
[1]
  IC50: 15 nM
Human CSNK1D
  IC50: 337 nM

## Cc1cc(-c2c(-c3ccc(F)cn3)nn3c2COCC3)c2cn[nH]c2n1 [Example 79, 2-(5-Fluoro-2-pyridyl)-3-(6-methyl-1H-pyrazolo[3,4-b]pyridin-4-yl)-6,7-dihydro-4H-pyrazolo[5,1-c][1,4]oxazine]
[1]
  IC50: 7 nM
Human CSNK1D
  IC50: 227 nM

## C[C@H]1OCCn2nc(-c3ccc(F)cn3)c(-c3ccnc4[nH]ccc34)c21 [Example 80, (R)-2-(5-Fluoropyridin-2-yl)-4-methyl-3-(1H-pyrrolo[2,3-b]pyridin-4-yl)-6,7-dihydro-4H-pyrazolo[5,1-c][1,4]oxazine]
[1]
  IC50: 18 nM
Human CSNK1D
  IC50: 3060 nM

## CC1COCc2c(-c3ccnc(CO)c3)c(-c3ccc(F)cc3)nn21 (centres unmarked) [Example 90, (4-(2-(4-Fluorophenyl)-7-methyl-6,7-dihydro-4H-pyrazolo[5,1-c][1,4]oxazin-3-yl)pyridin-2-yl)methanol]
[1]
  IC50: 16 nM
Human CSNK1D
  IC50: 352 nM

## Fc1ccc(-c2nn3c(c2-c2ccnc4[nH]ncc24)CO[C@H](C(F)(F)F)C3)cc1 [Example 100, (S)-2-(4-Fluorophenyl)-3-(1H-pyrazolo[3,4-b]pyridin-4-yl)-6-(trifluoromethyl)-6,7-dihydro-4H-pyrazolo[5,1-c][1,4]oxazine]
[1]
  IC50: 55 nM
Human CSNK1D
  IC50: 697 nM

## Fc1ccc(-c2nn3c(c2-c2ccnc4[nH]ncc24)CO[C@@H](C(F)(F)F)C3)cc1 [Example 101, (R)-2-(4-Fluorophenyl)-3-(1H-pyrazolo[3,4-b]pyridin-4-yl)-6-(trifluoromethyl)-6,7-dihydro-4H-pyrazolo[5,1-c][1,4]oxazine]
[1]
  IC50: 2 nM
Human CSNK1D
  IC50: 24 nM

## Fc1ccc(-c2nn3c(c2-c2ccnc4[nH]ncc24)COC(C(F)(F)F)C3)nc1 (centres unmarked) [Example 102, 2-(5-Fluoropyridin-2-yl)-3-(1H-pyrazolo[3,4-b]pyridin-4-yl)-6-(trifluoromethyl)-6,7-dihydro-4H-pyrazolo[5,1-c][1,4]oxazine]
[1]
  IC50: 39 nM
Human CSNK1D
  IC50: 844 nM

## Fc1ccc(-c2nn3c(c2-c2ccnc4[nH]ncc24)COCC32CC2)cc1 [Example 106, 2′-(4-Fluorophenyl)-3′-(1H-pyrazolo[3,4-b]pyridin-4-yl)-4′H,6′H-spiro[cyclopropane-1,7′-pyrazolo[5,1-c][1,4]oxazine]]
[1]
  IC50: 9 nM
Human CSNK1D
  IC50: 137 nM

## Cc1cc(-c2c(-c3ccc(F)cc3)nn3c2COCC32CC2)c2cn[nH]c2n1 [Example 107, 2′-(4-Fluorophenyl)-3′-(6-methyl-1H-pyrazolo[3,4-b]pyridin-4-yl)-4′H,6′H-spiro[cyclopropane-1,7-pyrazolo[5,1-c][1,4]oxazine]]
[1]
  IC50: 9 nM
Human CSNK1D
  IC50: 72 nM

## CC1(C)COCc2c(-c3ccnc4[nH]ncc34)c(-c3ccc(F)cc3)nn21 [Example 120, 2-(4-Fluorophenyl)-7,7-dimethyl-3-(1H-pyrazolo[3,4-b]pyridin-4-yl)-4,6-dihydropyrazolo[5,1-c][1,4]oxazine]
[1]
  IC50: 13 nM
Human CSNK1D
  IC50: 201 nM

## Cc1cc(-c2c(-c3ccc(F)cc3)nn3c2COCC3(C)C)c2cn[nH]c2n1 [Example 121, 2-(4-Fluorophenyl)-7,7-dimethyl-3-(6-methyl-1H-pyrazolo[3,4-b]pyridin-4-yl)-4,6-dihydropyrazolo[5,1-c][1,4]oxazine]
[1]
  IC50: 14 nM
Human CSNK1D
  IC50: 233 nM

## CC1(C)COCc2c(-c3ccnc4[nH]ncc34)c(-c3ccc(F)cn3)nn21 [Example 122, 2-(5-Fluoro-2-pyridyl)-7,7-dimethyl-3-(1H-pyrazolo[3,4-b]pyridin-4-yl)-4,6-dihydropyrazolo[5,1-c][1,4]oxazine]
[1]
  IC50: 120 nM
Human CSNK1D
  IC50: 3410 nM

## Cc1cc(-c2c(-c3ccc(F)cn3)nn3c2COCC3(C)C)c2cn[nH]c2n1 [Example 123, 2-(5-Fluoro-2-pyridyl)-7,7-dimethyl-3-(6-methyl-1H-pyrazolo[3,4-b]pyridin-4-yl)-4,6-dihydropyrazolo[5,1-c][1,4]oxazine]
[1]
  IC50: 111 nM
Human CSNK1D
  IC50: 2350 nM

## CC1(C)Cn2nc(-c3cscn3)c(-c3ccnc4[nH]ncc34)c2CO1 [Example 124, 6,6-Dimethyl-3-(1H-pyrazolo[3,4-b]pyridin-4-yl)-2-(thiazol-4-yl)-6,7-dihydro-4H-pyrazolo[5,1-c][1,4]oxazine]
[1]
  IC50: 17 nM
Human CSNK1D
  IC50: 343 nM

## Cc1cc(-c2c(-c3cscn3)nn3c2COC(C)(C)C3)c2cn[nH]c2n1 [Example 125, 6,6-Dimethyl-3-(6-methyl-1H-pyrazolo[3,4-b]pyridin-4-yl)-2-(thiazol-4-yl)-6,7-dihydro-4H-pyrazolo[5,1-c][1,4]oxazine]
[1]
  IC50: 12 nM
Human CSNK1D
  IC50: 270 nM

## CC1(C)Cn2nc(-c3cnco3)c(-c3ccnc4[nH]ncc34)c2CO1 [Example 126, 6,6-Dimethyl-2-(oxazol-5-yl)-3-(1H-pyrazolo[3,4-b]pyridin-4-yl)-6,7-dihydro-4H-pyrazolo[5,1-c][1,4]oxazine]
[1]
  IC50: 21 nM
Human CSNK1D
  IC50: 827 nM

## Cn1cnc(-c2nn3c(c2-c2ccnc4[nH]ncc24)COC(C)(C)C3)c1 [Example 127, 6,6-Dimethyl-2-(1-methyl-1H-imidazol-4-yl)-3-(1H-pyrazolo[3,4-b]pyridin-4-yl)-6,7-dihydro-4H-pyrazolo[5,1-c][1,4]oxazine]
[1]
  IC50: 51 nM
Human CSNK1D
  IC50: 3250 nM

## CC1(C)Cn2nc(-c3ccc(F)cn3)c(-c3ccncc3)c2CO1 [Example 128, 2-(5-Fluoropyridin-2-yl)-6,6-dimethyl-3-(pyridin-4-yl)-6,7-dihydro-4H-pyrazolo[5,1-c][1,4]oxazine]
[1]
  IC50: 13 nM
Human CSNK1D
  IC50: 244 nM

## CC1(C)Cn2nc(-c3ccc(F)cn3)c(-c3ccnc(C(F)F)c3)c2CO1 [Example 129, 3-(2-(Difluoromethyl)pyridin-4-yl)-2-(5-fluoropyridin-2-yl)-6,6-dimethyl-6,7-dihydro-4H-pyrazolo[5,1-c][1,4]oxazine]
[1]
  IC50: 36 nM
Human CSNK1D
  IC50: 440 nM

## COc1cnccc1-c1c(-c2ccc(F)cn2)nn2c1COC(C)(C)C2 [Example 130, 2-(5-Fluoropyridin-2-yl)-3-(3-methoxypyridin-4-yl)-6,6-dimethyl-6,7-dihydro-4H-pyrazolo[5,1-c][1,4]oxazine]
[1]
  IC50: 31 nM
Human CSNK1D
  IC50: 624 nM

## CCC(=O)Nc1cc(-c2c(-c3ccc(F)cn3)nn3c2COC(C)(C)C3)ccn1 [Example 131, N-(4-(2-(5-Fluoropyridin-2-yl)-6,6-dimethyl-6,7-dihydro-4H-pyrazolo[5,1-c][1,4]oxazin-3-yl)pyridin-2-yl)propionamide]
[1]
  IC50: 3 nM
Human CSNK1D
  IC50: 16 nM

## CC(C)C(=O)Nc1cc(-c2c(-c3ccc(F)cn3)nn3c2COC(C)(C)C3)ccn1 [Example 132, N-(4-(2-(5-Fluoropyridin-2-yl)-6,6-dimethyl-6,7-dihydro-4H-pyrazolo[5,1-c][1,4]oxazin-3-yl)pyridin-2-yl)isobutyramide]
[1]
  IC50: 3 nM
Human CSNK1D
  IC50: 11 nM
